ChEMBL document CHEMBL1667750, “Synthesis and biological activity of 7H-benzo[4,5]indolo[2,3-b]-quinoxaline derivatives” (Eur J Med Chem, 2011)
Active and inactive are the calls of the source. The rule behind the calls is not given here.

Legend:
[1] = tested on: Vesicular stomatitis virus; test: Antiviral activity against VSV infected in mouse L929 cells assessed as protection against virus-induced cytopathic effect treated immediately after viral infection at 21.4 uM; assay type: functional
L929 = test: Decrease in interferon inducing activity in VSV infected in mouse L929 cells at 1.1 uM; assay type: functional, cell-based
Calf thymus DNA = test: Binding affinity to calf thymus DNA by ethidium bromide displacement assay; assay type: nucleic-acid assay, Bos taurus; conditions: for logKa: Bos taurus
[2] = Cytotoxicity against mouse L929 cells; assay type: cell-based
[3] = tested on: Vesicular stomatitis virus; test: Antiviral activity against VSV infected in mouse L929 cells assessed as protection against virus-induced cytopathic effect treated 24 hrs before viral infection at 53 uM; assay type: functional
[4] = tested on: Vesicular stomatitis virus; test: Antiviral activity against VSV infected in mouse L929 cells assessed as protection against virus-induced cytopathic effect treated 24 hrs before viral infection at 3.1 uM; assay type: functional
[5] = tested on: Vesicular stomatitis virus; test: Antiviral activity against VSV infected in mouse L929 cells assessed as protection against virus-induced cytopathic effect treated immediately after viral infection at 25 uM; assay type: functional
[6] = tested on: Vesicular stomatitis virus; test: Antiviral activity against VSV infected in mouse L929 cells assessed as protection against virus-induced cytopathic effect treated 24 hrs before viral infection at 13 uM; assay type: functional
[7] = tested on: Vesicular stomatitis virus; test: Antiviral activity against VSV infected in mouse L929 cells assessed as protection against virus-induced cytopathic effect treated immediately after viral infection at 12.5 uM; assay type: functional
[8] = tested on: Vesicular stomatitis virus; test: Antiviral activity against VSV infected in mouse L929 cells assessed as protection against virus-induced cytopathic effect treated immediately after viral infection at 6.2 uM; assay type: functional
[9] = tested on: Vesicular stomatitis virus; test: Antiviral activity against VSV infected in mouse L929 cells assessed as protection against virus-induced cytopathic effect treated 24 hrs before viral infection at 110 uM; assay type: functional
[10] = tested on: Vesicular stomatitis virus; test: Antiviral activity against VSV infected in mouse L929 cells assessed as protection against virus-induced cytopathic effect treated immediately after viral infection at 27.5 uM; assay type: functional
[11] = tested on: Vesicular stomatitis virus; test: Antiviral activity against VSV infected in mouse L929 cells assessed as protection against virus-induced cytopathic effect treated 24 hrs before viral infection at 30 uM; assay type: functional
[12] = tested on: Vesicular stomatitis virus; test: Antiviral activity against VSV infected in mouse L929 cells assessed as protection against virus-induced cytopathic effect treated immediately after viral infection at 15 uM; assay type: functional
[13] = tested on: Vesicular stomatitis virus; test: Antiviral activity against VSV infected in mouse L929 cells assessed as protection against virus-induced cytopathic effect treated immediately after viral infection at 6.7 uM; assay type: functional
[14] = tested on: Vesicular stomatitis virus; test: Antiviral activity against VSV infected in mouse L929 cells assessed as protection against virus-induced cytopathic effect treated immediately after viral infection at 5.5 uM; assay type: functional
[15] = tested on: Vesicular stomatitis virus; test: Antiviral activity against VSV infected in mouse L929 cells assessed as protection against virus-induced cytopathic effect treated 24 hrs before viral infection at 0.2 uM; assay type: functional

SMILES	Activity (L929)	pIC50 (Calf thymus DNA)	logKa (Calf thymus DNA)	CC50 [2] [µM]	Emax at 3.1 µM [4] [%]	other results
CC1CCN(CCn2c3ccc4ccccc4c3c3nc4ccccc4nc32)CC1	Active	4.48	6.58	> 214	–	Emax at 21.4 µM [1]: 51%; Emax at 53 µM [3]: 30%
CN(C)CCn1c2ccccc2c2nc3ccccc3nc21	Active	3.83	5.93	–	75	Emax at 25 µM [5]: 100%
CN1CCN(CCn2c3ccccc3c3nc4ccccc4nc32)CC1	Active	3.77	5.87	–	–	Emax at 13 µM [6]: 85%; Emax at 12.5 µM [7]: 100%
CCCCN(C)CCn1c2ccccc2c2nc3ccccc3nc21	Active	3.82	5.93	–	75	Emax at 25 µM [5]: 80%
c1ccc2nc3c(nc2c1)c1ccccc1n3CCN1CCCCC1	Active	3.91	6.01	–	90	Emax at 6.2 µM [8]: 75%
c1ccc2c(c1)ccc1c2c2nc3ccccc3nc2n1CCN1CCCCC1	Active	4.51	6.61	> 221	–	Emax at 110 µM [9]: 20%; Emax at 27.5 µM [10]: 55%
CN(C)CCn1c2ccc3ccccc3c2c2nc3ccccc3nc21	Active	4.84	6.94	49.9	–	Emax at 30 µM [11]: 21%; Emax at 15 µM [12]: 45%
CN1CCN(CCn2c3ccc4ccccc4c3c3nc4ccccc4nc32)CC1	Active	4.84	6.94	21.4	–	Emax at 13 µM [6]: 17%; Emax at 6.7 µM [13]: 80%
c1ccc2nc3c(nc2c1)c1ccccc1n3CCN1CCCC1	Active	3.95	6.05	–	85	Emax at 12.5 µM [7]: 100%
c1ccc2c(c1)ccc1c2c2nc3ccccc3nc2n1CCN1CCOCC1	Active	4.84	6.94	–	–	Emax at 5.5 µM [14]: 50%; Emax at 0.2 µM [15]: 10%
